# Data as given in publication PMC8287724, “Reducing Auditory Nerve Excitability by Acute Antagonism of Ca^2+-Permeable AMPA Receptors” (Frontiers in Synaptic Neuroscience, 2021).
# pIC50: −log10 of the molar value. Several values for one entry are separate records, joined by “and”; a condition that tells them apart may be missing. Equal entries are not always repeated.
# Tests used:
# [1] = tested on: auditory nerve compound action potential (CAP); assay: Auditory nerve CAP during intracochlear (apical) perfusion; type: in vivo, guinea pig
# Procedure: This study utilized 21 NIH-strain, pigmented guinea pigs weighing from 400 to 650 g, in accordance with policies and protocols approved by the Institutional Animal Care and Use Committee at Washington University in St. Louis (20180133, 20190035). Animals were anesthetized with intraperitoneal (IP) injection of 100 mg/kg sodium thiobutabarbital (Inactin, Sigma, St. Louis, MO). Once anesthetized, the fur from the head and neck was shaved and a tracheal cannula was placed. The animal was maintained on 0.8–1.2% isoflurane in oxygen using a mechanical ventilator. The ventilator's tidal volume was adjusted to maintain a 5% end-tidal CO2 which was monitored with a CapnoTrue AMP (Bluepoint Medical, Zevenaar, The Netherlands). Body temperature was maintained at 38 degrees C with a DC-powered heating blanket-rectal thermometer (Model 50-7079; Harvard Apparatus). Heart rate and oxygen saturation were monitored with a pulse oximeter (Surgivet, Waukesha, WI). The auditory bulla was exposed ventrally for placement of recording electrodes. The jugular vein was cannulated to maintain hydration with 0.5 mL per hour of Lactated Ringer's solution. To prevent middle ear muscle contractions, vecuronium bromide (0.2 mg/kg) was administered immediately prior to data collection and every 1.5 h thereafter.
# The head was stabilized in a head-holder with a solid ear bar on the left side and hollow ear bar on the right side, a bite bar, and a snout clamp. Sound calibration, stimulus generation, and recording methods have been detailed previously (Lichtenhan et al., [2016a], [2017]). Briefly, cochlear function measurements were made using MATLAB software (The MathWorks, Natick, MA) and the software utility Playrec. The stimulus was first generated in MATLAB, digitized at 96 kHz, presented to a 24-bit sound card (RME: Fireface802; Sweetwater, Fort Wayne, IN), and then routed to an acoustic probe system (ER-10X; Etymotic Research, Fort Wayne, IN). The ER-10X microphone was calibrated using a reference microphone (1/8” GRAS type 40P) and a custom-made coupling system was used for setting stimulus levels. Sound was presented through the hollow ear bar on the right side via the ER-10X microphone probe.
# Cochlear output was recorded as a field potential between a Ag/AgCl ball electrode in the cochlear round window niche and a platinum needle electrode at the vertex of the cranium. Responses to 20 tone bursts (10 with reversed polarity) were averaged for each CAP measurement at a given frequency and level. The CAP audiogram was measured (1–22 kHz, 1/4 octave steps) at the beginning and end of the experiment to determine CAP threshold as a function of tone-burst frequency. Prior to and immediately after IEM-1460 perfusions via the apical cochlear fenestration (see below), CAPs were evoked by tone bursts at selected frequencies and levels. Measurements were repeated at 1- to 2-min intervals to monitor cochlear output and to ensure response stationarity for at least 25 min prior to drug delivery. Data with baseline changes >20% were excluded. The round window niche was monitored for accumulation of fluid.
# At each probe frequency, CAP peak-to-peak amplitudes were measured from the first trough (N1) to the first peak (P1). Latencies were measured to the trough of N1. Cochlear output was compared before and after intraperitoneal drug delivery. The data were tested for normality using a Kolmogorov-Smirnov test. For CAP amplitude and latency, significance was assessed with the Mann-Whitney U-test. The Wilcoxon signed rank test was used to assess CAP threshold. Friedman test was used to compare concentrations of drug between perilymph and CSF. A p < 0.05 was considered statistically significant. A Bonferroni correction was used when performing multiple comparison testing. All statistical tests were performed with IBM SPSS Statistics Version 27 (SPSS Inc., Chicago, IL, United States). […]
# GluA2-containing AMPARs = tested on: GluA2-containing AMPARs; design: method as in Magazanik et al., 1997; Buldakova et al., 1999; conditions: ref Magazanik et al., 1997; Buldakova et al., 1999; cited from earlier work
# [2] = tested on: distortion product otoacoustic emissions (DPOAE); assay: Distortion product otoacoustic emissions after systemic delivery; type: in vivo, guinea pig; conditions: IP 13.5 mg/kg
# Procedure: As described for local delivery, cochlear output was measured similarly for systemic delivery of IEM-1460 and IEM-1925. Complete details have been previously published (Salt et al., [2013]). Briefly, acoustic tone bursts were applied in a closed sound system. The plastic extension tube of the acoustic assembly (Etymotic Research, ER-10 C) was coupled to the end of the hollow ear bar with the tube tip positioned ~1.5 mm from the tympanic membrane. Stimulus generation and data collection were performed with Tucker Davis System 3 hardware controlled by a custom written program (Microsoft Visual Basic). Stimulus waveforms were routed through a programmable Tucker Davis PA5 attenuator and HB7 headphone amplifier. Stimuli were calibrated from 0.125 to 26 kHz in 1/4 octave steps. A CAP audiogram was obtained at the beginning and end of the experiment. Up to 60 min of baseline audiometric data were obtained prior to drug delivery. Data with baseline changes >20% were excluded. A 13-level tone probe series, at selected frequencies, was repeated at 2-min intervals. Distortion product otoacoustic emissions (DPOAEs) were measured using an ER10C probe system. The two primary tone frequencies were set at 6 kHz (f1) and 7.4 kHz (f2), for a f2/f1-ratio of 1.23, with levels of 65 dB SPL (L1) and 55 dB SPL (L2). […]
# [3] = 100 μM, across tone levels and frequencies
structure (smiles),measurement,setting,value
C[N+](C)(C)CCCCCNCC12CC3CC(CC(C3)C1)C2 [IEM-1460],reduction of tone-evoked CAP amplitude,[1]; 10 μM in perfusion,~ 25%
same,reduction of CAP amplitude,"[1]; 100 μM in perfusion pipette, 80 dB SPL tones at 2 and 16 kHz, average",~ 55%
same,reduction of CAP amplitude relative to pre-drug baseline,"[1]; 100 μM, 2 kHz tones",~ 60%
same,reduction of CAP amplitude relative to pre-drug baseline,"[1]; 100 μM, 16 kHz tones",~ 30%
same,additional CAP delay,[1]; [3],~ 0.3 ms
same,increase of CAP latency relative to pre-drug,[1]; [3],~ 10% and 10%
same,change in CAP threshold,"[1]; 100 μM, frequencies from 1 to 20 kHz",< 5 dB SPL
same,pIC50,"[1]; Cavia porcellus, intracochlear perfusion 0.1 to 4,000 μM, 80 dB SPL probe, averaged for 2 and 16 kHz tones, Boltzmann fit, read-out: IC50, concentration for a 50% CAP reduction",~4.14
same,reduction of CAP amplitude,"[1]; acute intracochlear delivery, all tone levels and frequencies (abstract, concentration not stated)",> 50%
same,pIC50,GluA2-containing AMPARs,2.96 to 3.30
same,effect on distortion product otoacoustic emissions (DPOAEs),[2],unaffected
